Results on one compound are retold here after ChEMBL document CHEMBL5505999, “Discovery of anti-inflammatory agents from 3, 4-dihydronaphthalene-1(2H)-one derivatives by inhibiting NLRP3 inflammasome activation” (Eur J Med Chem, 2024).

The term inhibition denotes how much of the control response was suppressed.

Activity calls are given as the source filed them. No cut-off for these calls is given here.

Series [1] has as its target Transcription factor p65 (Mus musculus) (UniProt Q04207). Briefly: Inhibition of NF-kappaB p65 nuclear translocation in LPS-induced mouse RAW264.7 cells assessed as increase in p65 subunits in cytoplasm at 6.0 uM preincubated with compound for 2 hrs followed by LPS addition and measured after 2 hrs by DAPI staining based Zeiss laser confocal microscopic analysis. Format: cell-based. As to conditions: time 4.0 hrs.

Series [2] has as its target NACHT, LRR and PYD domains-containing protein 3 (Mus musculus) (UniProt Q8R4B8). In words: Inhibition of NLRP3 inflammasome activation in mouse RAW264.7 cells assessed as reduction in NLRP3 expression at 1.5 to 6.0 uM preincubated with compound for 2 hrs followed by LPS addition and measured after 30 mins by Western blot analysis. The series is classed as cell-based. The conditions noted are these: dose 1.5-6 µM, time 2.5 hrs.

Series [3] is described as follows: Induction of apoptosis in mouse RAW264.7 cells assessed as viable cells at 1.5 uM by Annexin V-FITC/PI staining based flow cytometric analysis (reference value: 96.4%). The conditions noted are these: read-out: Activity. The series is classed as toxicity, cell-based.
A short description of series [4]: Induction of apoptosis in mouse RAW264.7 cells assessed as viable cells at 3.0 uM by Annexin V-FITC/PI staining based flow cytometric analysis (reference value: 96.4%). The conditions noted are these: read-out: Activity. The series is classed as toxicity, cell-based. On the technique in general: Flow cytometry measures light scatter and fluorescence of single cells or particles in a stream.

In series [5] the test system is RAW264.7. Briefly: Inhibition of NF-kappaB signaling pathway in mouse RAW264.7 cells assessed as reduction in IkappaBalpha phosphorylation preincubated with compound for 2 hrs followed by LPS addition and measured after 22 hrs by Western blot analysis. Format: cell-based. The conditions noted are these: dose 1.5-6 µM, time 24.0 hrs. (In general: Immunoblotting shows a protein as a band on a membrane.)

Series [6] has as its system RAW264.7. In words: Anti-inflammatory activity in mouse RAW264.7 cells assessed as inhibition of LPS-induced TNF-alpha production at 2.5 uM pretreated with compound for 2 hrs followed by LPS addition and measured after 22 hrs by ELISA relative to control. As to conditions: time 24 hrs. Format: functional. A general note: ELISA stands for enzyme-linked immunosorbent assay.

For series [7], the system named is RAW264.7. Briefly: Anti-inflammatory activity in mouse RAW264.7 cells assessed as inhibition of LPS-induced IL-6 production at 2.5 uM pretreated with compound for 2 hrs followed by LPS addition and measured after 22 hrs by ELISA relative to control. The conditions noted are these: time 24 hrs. The series is classed as functional.
The target in series [8] is NACHT, LRR and PYD domains-containing protein 3 (Mus musculus) (UniProt Q8R4B8). In words: Inhibition of NLRP3 inflammasome activation in mouse RAW264.7 cells assessed as reduction in ASC expression at 1.5 to 6.0 uM preincubated with compound for 2 hrs followed by LPS addition and measured after 30 mins by Western blot analysis. Format: cell-based. The conditions noted are these: dose 1.5-6 µM, time 2.5 hrs.
NACHT, LRR and PYD domains-containing protein 3 (Mus musculus), sequence (Q8R4B8 whole entry, the tested form may be a part): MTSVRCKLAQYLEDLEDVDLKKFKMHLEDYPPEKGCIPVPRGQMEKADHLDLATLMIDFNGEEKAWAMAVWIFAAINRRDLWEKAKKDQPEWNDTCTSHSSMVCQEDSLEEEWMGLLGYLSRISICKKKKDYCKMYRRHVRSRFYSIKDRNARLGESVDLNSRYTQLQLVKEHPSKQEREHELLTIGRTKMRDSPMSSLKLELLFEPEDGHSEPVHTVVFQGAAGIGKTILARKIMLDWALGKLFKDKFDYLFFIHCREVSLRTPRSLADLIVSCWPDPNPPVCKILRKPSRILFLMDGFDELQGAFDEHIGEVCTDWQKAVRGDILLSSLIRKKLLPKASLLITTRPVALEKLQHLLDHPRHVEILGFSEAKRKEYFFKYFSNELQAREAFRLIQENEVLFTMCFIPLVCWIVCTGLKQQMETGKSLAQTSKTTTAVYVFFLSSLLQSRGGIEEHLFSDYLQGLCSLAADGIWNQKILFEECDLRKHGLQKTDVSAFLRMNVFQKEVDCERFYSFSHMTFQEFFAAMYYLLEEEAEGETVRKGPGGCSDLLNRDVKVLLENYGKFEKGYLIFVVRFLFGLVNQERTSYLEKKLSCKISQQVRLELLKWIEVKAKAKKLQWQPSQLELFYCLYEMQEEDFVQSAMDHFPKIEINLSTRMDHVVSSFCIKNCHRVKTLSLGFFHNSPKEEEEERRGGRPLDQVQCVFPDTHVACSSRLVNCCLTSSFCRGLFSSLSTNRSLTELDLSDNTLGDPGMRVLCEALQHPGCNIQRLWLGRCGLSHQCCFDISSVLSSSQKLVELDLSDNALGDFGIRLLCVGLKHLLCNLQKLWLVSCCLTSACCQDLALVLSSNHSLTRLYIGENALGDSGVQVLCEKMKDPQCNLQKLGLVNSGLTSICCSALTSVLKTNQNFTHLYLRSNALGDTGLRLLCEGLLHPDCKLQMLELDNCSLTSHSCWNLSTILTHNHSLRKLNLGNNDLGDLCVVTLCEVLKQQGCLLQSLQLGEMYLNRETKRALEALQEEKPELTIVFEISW

For series [9], the system named is RAW264.7. In words: Inhibition of NF-kappaB signaling pathway in mouse RAW264.7 cells assessed as reduction in p65 phosphorylation preincubated with compound for 2 hrs followed by LPS addition and measured after 22 hrs by Western blot analysis. The series is classed as cell-based. The conditions noted are these: dose 1.5-6 µM, time 24.0 hrs.
Series [10] relates to RAW264.7. In words: Anti-inflammatory activity in mouse RAW264.7 cells assessed as inhibition of LPS-induced IL-1beta production pretreated with compound for 2 hrs followed by LPS addition for 22 hrs and measured 30 mins after LPS addition by ELISA. Format: functional, cell-based. As to conditions: dose 1.5-6 µM, time 24.5 hrs.
Series [11] relates to RAW264.7. Briefly: Induction of apoptosis in mouse RAW264.7 cells assessed as apoptotic cells at 1.5 uM by Annexin V-FITC/PI staining based flow cytometric analysis (reference value: 1.9%). The series is classed as toxicity, cell-based. As to conditions: raw264.7, 1.5 µM.
The test system of series [12] is RAW264.7. In words: Anti-inflammatory activity in mouse RAW264.7 cells assessed as inhibition of LPS-induced IL-6 production pretreated with compound for 2 hrs followed by LPS addition and measured after 22 hrs by ELISA. The series is classed as functional, cell-based. As to conditions: dose 1.5-6 µM, time 24.0 hrs.
Series [13] concerns the target NACHT, LRR and PYD domains-containing protein 3 (Mus musculus) (UniProt Q8R4B8). In words: Inhibition of NLRP3 inflammasome activation in LPS-induced mouse RAW264.7 cells assessed as reduction in ROS production by measuring intracellular ROS level at 3.0 uM incubated for 24 hrs by DCFH-DA staining based flow cytometric analysis (reference value: 42.0%). Format: cell-based. More on the design: scale not given: the % may be the effect or the level left.

Series [14] has the same target. Briefly: Inhibition of NLRP3 inflammasome activation in LPS-induced mouse RAW264.7 cells assessed as reduction in ROS production by measuring intracellular ROS level at 6.0 uM incubated for 24 hrs by DCFH-DA staining based flow cytometric analysis (reference value: 42.0%). The series is classed as cell-based. The arrangement: scale not given: the % may be the effect or the level left.

Series [15] shares this target. In words: Inhibition of NLRP3 inflammasome activation in LPS-induced mouse RAW264.7 cells assessed as reduction in NO production incubated for 24 hrs by Griess reagent based assay. The series is classed as cell-based. As to conditions: dose 1.5-6 µM.
For series [16], the system named is RAW264.7. In words: Induction of apoptosis in mouse RAW264.7 cells assessed as apoptotic cells at 3.0 uM by Annexin V-FITC/PI staining based flow cytometric analysis (reference value: 1.9%). The series is classed as toxicity, cell-based. The conditions noted are these: raw264.7, 3 µM.
The test system of series [17] is RAW264.7. In words: Anti-inflammatory activity in mouse RAW264.7 cells assessed as inhibition of LPS-induced IL-18 production pretreated with compound for 2 hrs followed by LPS addition for 22 hrs and measured 30 mins after LPS addition by ELISA. As to conditions: dose 1.5-6 µM, time 24.5 hrs. The series is classed as functional, cell-based.
Series [18] can be described thus: Induction of apoptosis in mouse RAW264.7 cells assessed as viable cells at 6.0 uM by Annexin V-FITC/PI staining based flow cytometric analysis (reference value: 96.4%). The series is classed as toxicity, cell-based. As to conditions: read-out: Activity.
Series [19] in a line: Cytotoxicity against mouse RAW264.7 cells assessed as survival rate at 2.5 uM incubated overnight by CCK-8 assay relative to control. The series is classed as toxicity, cell-based. As to conditions: read-out: Survival.
Series [20] has as its target NACHT, LRR and PYD domains-containing protein 3 (Mus musculus) (UniProt Q8R4B8). Briefly: Inhibition of NLRP3 inflammasome activation in LPS-induced mouse RAW264.7 cells assessed as reduction in ROS production by measuring intracellular ROS level at 1.5 uM incubated for 24 hrs by DCFH-DA staining based flow cytometric analysis (reference value: 42.0%). Format: cell-based. The arrangement: scale not given: the % may be the effect or the level left.

The test system of series [21] is RAW264.7. In words: Induction of apoptosis in mouse RAW264.7 cells assessed as apoptotic cells at 6.0 uM by Annexin V-FITC/PI staining based flow cytometric analysis (reference value: 1.9%). The series is classed as toxicity, cell-based. The conditions noted are these: raw264.7, 6 µM.
In series [22] the test system is RAW264.7. Briefly: Anti-inflammatory activity in mouse RAW264.7 cells assessed as inhibition of LPS-induced TNF-alpha production pretreated with compound for 2 hrs followed by LPS addition and measured after 22 hrs by ELISA. The series is classed as functional, cell-based. As to conditions: dose 1.5-6 µM, time 24.0 hrs.

Transcription factor p65 (Mus musculus), sequence (Q04207 whole entry): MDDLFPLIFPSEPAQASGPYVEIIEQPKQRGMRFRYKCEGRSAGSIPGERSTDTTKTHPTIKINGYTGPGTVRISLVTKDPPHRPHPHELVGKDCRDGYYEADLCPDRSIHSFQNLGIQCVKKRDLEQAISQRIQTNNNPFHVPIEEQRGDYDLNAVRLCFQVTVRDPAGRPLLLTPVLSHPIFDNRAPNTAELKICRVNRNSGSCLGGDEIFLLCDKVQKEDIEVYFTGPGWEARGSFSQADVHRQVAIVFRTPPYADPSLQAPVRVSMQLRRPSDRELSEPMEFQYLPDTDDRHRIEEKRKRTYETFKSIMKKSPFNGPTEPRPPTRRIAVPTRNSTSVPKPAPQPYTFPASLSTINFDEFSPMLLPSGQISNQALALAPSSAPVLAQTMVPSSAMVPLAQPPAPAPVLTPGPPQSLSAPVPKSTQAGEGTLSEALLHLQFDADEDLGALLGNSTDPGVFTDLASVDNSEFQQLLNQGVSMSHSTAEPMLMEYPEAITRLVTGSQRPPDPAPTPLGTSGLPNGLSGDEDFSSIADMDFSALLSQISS

On to `CN1CCN(c2ccc(/C=C3\CCc4ccc(Br)cc4C3=O)nc2)CC1`, for which the inhibition result in series [1], in series [2] and in series [8] was “Active” in each case. Also, the viability at 1.5 µM in [3] was 94.4%. Besides, the viability at 3 µM in series [4] is 92.8%. Moreover, the inhibition entry in series [5], in series [9] and in [15] was “Dose-Dependent Effect” each time. The inhibition at 2.5 µM in [6] came to 81.4%; in [7], 69.2%. Further, the Activity result in [10] is “Dose-Dependent Effect”; in [11] it was 3.8%; in [12] it was “Dose-Dependent Effect”; in [13] it was 31.8%; in series [14], 19.9%; in series [16] it was 5.6%. Moreover, the Activity entry is “Dose-Dependent Effect” in series [17], 36.4% in [20], 6.8% in series [21] and “Dose-Dependent Effect” in series [22]. The viability at 6 µM in series [18] is 91.6%. Moreover, the viability at 2.5 µM in series [19] is 108%.
